Legend:
LTB4 = test: Inhibition of LTB4 production by DPG; settings: concentrations of DPG contained in Theraflex
PGE2 = test: Inhibition of PGE2 production by DPG; settings: concentrations of DPG contained in Theraflex

With `CC1(C)[C@@H](O[C@H]2O[C@H](C(=O)[O-])[C@@H](O)[C@H](O)[C@H]2O[C@@H]2O[C@H](C(=O)[O-])[C@@H](O)[C@H](O)[C@H]2O)CC[C@]2(C)[C@H]3C(=O)C=C4[C@@H]5C[C@@](C)(C(=O)O)CC[C@]5(C)CC[C@@]4(C)[C@]3(C)CC[C@@H]12.[K+].[K+]` [DPG, dipotassium glycyrrhizinate] as the compound, how does the “inhibition of production of LTB4” value (LTB4) read?
The value was “greater than 50%”.

What about the “inhibition of production of PGE2” value (PGE2) of the same compound?
The value was “greater than 50%”.

— US8337869B2, “Analgesic cream” (priority 2007, dated 2012)
